Experimental data as given in BindingDB's records for doi:10.1007/pl00005315 (Eli Lilly, 1999).

Key:
[1] = target: 5-hydroxytryptamine receptor 2A (Homo sapiens, UniProt P28223)
[2] = target: 5-hydroxytryptamine receptor 2B (Homo sapiens, UniProt P41595)
[3] = target: 5-hydroxytryptamine receptor 2B (Rattus norvegicus, UniProt P30994)
[4] = target: T1, 5-hydroxytryptamine receptor 2C (Homo sapiens, UniProt P28335)
T1 sequence (P28335 whole entry): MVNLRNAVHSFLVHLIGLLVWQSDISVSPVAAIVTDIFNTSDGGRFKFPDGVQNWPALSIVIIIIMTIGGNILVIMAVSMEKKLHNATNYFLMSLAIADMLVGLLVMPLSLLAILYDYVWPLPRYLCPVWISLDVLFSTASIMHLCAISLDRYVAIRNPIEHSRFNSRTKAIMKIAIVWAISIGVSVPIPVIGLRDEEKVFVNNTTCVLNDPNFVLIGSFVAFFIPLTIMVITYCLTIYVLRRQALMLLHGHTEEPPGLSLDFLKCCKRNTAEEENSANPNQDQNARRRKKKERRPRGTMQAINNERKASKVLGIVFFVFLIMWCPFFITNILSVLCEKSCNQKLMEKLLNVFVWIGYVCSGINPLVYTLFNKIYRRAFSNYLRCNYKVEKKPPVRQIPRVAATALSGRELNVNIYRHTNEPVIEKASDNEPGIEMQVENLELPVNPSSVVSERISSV

Chain of 5-hydroxytryptamine receptor 2A (P28223 whole entry): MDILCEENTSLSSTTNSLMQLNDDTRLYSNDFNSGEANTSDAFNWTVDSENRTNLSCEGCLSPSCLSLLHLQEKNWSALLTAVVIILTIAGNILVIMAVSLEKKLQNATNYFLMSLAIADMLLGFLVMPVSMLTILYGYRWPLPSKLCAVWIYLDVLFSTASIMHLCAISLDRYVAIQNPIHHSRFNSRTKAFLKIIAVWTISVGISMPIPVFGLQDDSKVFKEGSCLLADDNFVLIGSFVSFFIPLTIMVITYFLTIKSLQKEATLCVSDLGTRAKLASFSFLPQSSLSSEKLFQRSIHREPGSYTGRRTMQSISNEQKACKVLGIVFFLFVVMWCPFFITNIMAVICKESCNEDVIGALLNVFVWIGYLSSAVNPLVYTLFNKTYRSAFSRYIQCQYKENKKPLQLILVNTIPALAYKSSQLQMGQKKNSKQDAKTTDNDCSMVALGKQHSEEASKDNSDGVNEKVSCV
Chain of 5-hydroxytryptamine receptor 2B (Rattus norvegicus, UniProt P30994) (P30994 whole entry): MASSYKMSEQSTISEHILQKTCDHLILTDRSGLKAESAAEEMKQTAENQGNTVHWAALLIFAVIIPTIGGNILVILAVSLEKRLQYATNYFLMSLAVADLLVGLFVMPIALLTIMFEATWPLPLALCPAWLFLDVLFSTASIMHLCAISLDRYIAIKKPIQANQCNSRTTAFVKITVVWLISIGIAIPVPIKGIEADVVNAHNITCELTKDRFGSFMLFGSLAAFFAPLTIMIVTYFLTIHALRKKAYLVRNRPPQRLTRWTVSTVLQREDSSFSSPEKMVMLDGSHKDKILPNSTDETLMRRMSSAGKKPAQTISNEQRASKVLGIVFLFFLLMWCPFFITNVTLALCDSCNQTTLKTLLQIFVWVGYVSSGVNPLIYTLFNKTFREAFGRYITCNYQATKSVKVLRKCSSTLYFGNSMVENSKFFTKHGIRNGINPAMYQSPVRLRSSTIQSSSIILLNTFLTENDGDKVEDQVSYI
Chain of 5-hydroxytryptamine receptor 2B (Homo sapiens, UniProt P41595) (P41595 whole entry): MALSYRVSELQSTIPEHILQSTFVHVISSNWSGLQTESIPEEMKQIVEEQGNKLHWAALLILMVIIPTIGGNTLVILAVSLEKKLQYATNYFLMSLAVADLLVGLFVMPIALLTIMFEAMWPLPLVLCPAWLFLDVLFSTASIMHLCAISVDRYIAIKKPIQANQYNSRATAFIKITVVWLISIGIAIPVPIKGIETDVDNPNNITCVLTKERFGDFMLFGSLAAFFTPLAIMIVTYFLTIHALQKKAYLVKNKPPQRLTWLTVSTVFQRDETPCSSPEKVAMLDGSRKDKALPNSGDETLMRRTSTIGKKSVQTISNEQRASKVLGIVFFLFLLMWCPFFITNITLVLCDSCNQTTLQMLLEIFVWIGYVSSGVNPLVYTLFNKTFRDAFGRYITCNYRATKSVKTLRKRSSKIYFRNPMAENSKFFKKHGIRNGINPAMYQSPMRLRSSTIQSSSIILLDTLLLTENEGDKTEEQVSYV

Row | Structure (SMILES) | Ki [1] [nM] | Ki [2] [nM] | Ki [3] [nM] | Ki [4] [nM]
1 | COc1cc(CC(C)N)cc(OC)c1OC (configuration not stated) | 57.9 | 307 | 187 | –
2 | CCCNC(C)Cc1cc(OC)c(Br)cc1OC (configuration not stated) | – | 521 | 976 | 514
3 | COc1cc(CC(C)N)c(OC)cc1F (configuration not stated) | 41.7 | 227 | 306 | 28.7
4 | COc1cc(CC(C)N)c(OC)cc1C#N (configuration not stated) | 45.7 | 774 | 877 | 1010
5 | COc1cc(CC(C)N)c(OC)cc1Cc1ccccc1 (configuration not stated) | 0.4 | 35 | 53.8 | 1
6 | COc1cc(C(C)=O)c(OC)cc1CC(C)N (configuration not stated) [1-(4-acetyl-2,5-dimethoxyphenyl)-2-aminopropane] | 80.5 | 313 | 947 | 91.3
7 | CCCc1cc(OC)c(CC(C)N)cc1OC (configuration not stated) [2-(2,5-Dimethoxy-4-propyl-phenyl)-1-methyl-ethylamine(DOPR)] | 0.9 | 54.4 | 115 | 1.1
8 | COc1ccc(OC)c(CC(C)N)c1 (configuration not stated) [2-(2,5-Dimethoxy-phenyl)-1-methyl-ethylamine] | – | 1040 | – | 104
9 | COc1cc(CC(C)N)c(OC)cc1Br (stereo not drawn) [2-(4-Bromo-2,5-dimethoxy-phenyl)-1-methyl-ethylamine((-)-DOB)] | – | 26.9 | – | –
10 | C[C@]12CC[C@H]3[C@@H](CCC4=CC(=O)CC[C@@]43C)[C@@H]1CC[C@@H]2C(=O)CO [(1S,2R,10S,11S,14S,15S)-14-(2-hydroxyacetyl)-2,15-dimethyltetracyclo[8.7.0.0^{2,7}.0^{11,15}]heptadec-6-en-5-one] | 1.4 | 31.8 | 26.8 | 2
11 | COCCOCCl [CAS_3970-21-6] | 73 | 763 | 1130 | 124
12 | CCCCCCc1cc(OC)c(CC(C)N)cc1OC (configuration not stated) [DOHx] | 0.1 | 30.3 | 49 | 0.7
13 | COc1cc([N+](=O)[O-])c(OC)cc1CC(C)N (configuration not stated) [DON] | 5.5 | 166 | 248 | 22.4
14 | COc1cc(C(C)(C)C)c(OC)cc1CC(C)N (configuration not stated) [DOTB] | 3.7 | 24.6 | 49.6 | 2.2
15 | COc1cc(CC(C)N(C)C)c(OC)cc1Br (configuration not stated) [M-154] | 94.2 | 341 | 683 | 68.1
16 | COc1cc(CC(C)[N+](C)(C)C)c(OC)cc1Br (configuration not stated) [N,N,N-trimethyl-1-(4-bromo-2,5-dimethoxyphenyl)-2-aminopropane] | 2150 | > 10000 | > 10000 | 6300
